The target of assay [1] is Serine/threonine-protein kinase 38 (Homo sapiens) (UniProt Q15208).
The target of assay [2] is Serine/threonine-protein kinase 26 (Homo sapiens) (UniProt Q9P289).
Assay [3] addresses Calcium/calmodulin-dependent protein kinase type 1D (Homo sapiens) (UniProt Q8IU85).
Assay [4] addresses T1, Dual specificity mitogen-activated protein kinase kinase 6 (Homo sapiens) (UniProt P52564).
T1 sequence (whole entry): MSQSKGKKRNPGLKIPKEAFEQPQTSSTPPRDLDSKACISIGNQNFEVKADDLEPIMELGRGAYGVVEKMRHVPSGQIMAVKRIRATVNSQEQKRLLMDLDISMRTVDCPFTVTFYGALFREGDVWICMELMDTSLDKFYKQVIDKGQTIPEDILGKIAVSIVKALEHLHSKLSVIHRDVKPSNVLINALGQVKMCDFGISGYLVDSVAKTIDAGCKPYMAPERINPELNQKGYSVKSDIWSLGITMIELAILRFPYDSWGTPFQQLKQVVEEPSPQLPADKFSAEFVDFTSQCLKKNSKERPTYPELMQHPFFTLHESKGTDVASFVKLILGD

The target in assay [5] is T2, Serine/threonine-protein kinase 17A (Homo sapiens) (UniProt Q9UEE5).
T2 sequence (whole entry): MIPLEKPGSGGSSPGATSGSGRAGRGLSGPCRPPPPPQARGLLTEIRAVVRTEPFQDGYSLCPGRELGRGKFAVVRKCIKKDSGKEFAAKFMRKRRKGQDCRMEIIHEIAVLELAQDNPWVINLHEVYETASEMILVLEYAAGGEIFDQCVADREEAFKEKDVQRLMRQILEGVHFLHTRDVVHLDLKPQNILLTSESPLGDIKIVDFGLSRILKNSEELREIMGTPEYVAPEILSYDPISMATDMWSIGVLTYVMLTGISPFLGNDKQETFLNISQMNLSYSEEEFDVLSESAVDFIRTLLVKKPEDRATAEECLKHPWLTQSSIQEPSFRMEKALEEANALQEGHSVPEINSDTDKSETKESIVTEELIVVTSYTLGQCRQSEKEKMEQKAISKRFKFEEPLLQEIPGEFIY

The target of assay [6] is T3, Serine/threonine-protein kinase Nek2 (Homo sapiens) (UniProt P51955).
T3 sequence (whole entry): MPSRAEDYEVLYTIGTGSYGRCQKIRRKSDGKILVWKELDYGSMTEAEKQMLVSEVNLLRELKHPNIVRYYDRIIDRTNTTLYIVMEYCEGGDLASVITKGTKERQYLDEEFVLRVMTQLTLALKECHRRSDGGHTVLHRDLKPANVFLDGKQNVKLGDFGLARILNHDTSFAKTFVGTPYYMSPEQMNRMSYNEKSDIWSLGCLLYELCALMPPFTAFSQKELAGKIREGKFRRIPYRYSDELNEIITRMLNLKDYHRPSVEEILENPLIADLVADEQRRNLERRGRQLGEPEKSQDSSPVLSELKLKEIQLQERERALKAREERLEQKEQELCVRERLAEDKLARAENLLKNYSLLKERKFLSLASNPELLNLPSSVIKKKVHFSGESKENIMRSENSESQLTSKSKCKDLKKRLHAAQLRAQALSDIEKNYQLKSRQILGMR

Assay [7] addresses Serine/threonine-protein kinase PAK 5 (Homo sapiens) (UniProt Q9P286).
The target of assay [8] is Cyclin-dependent kinase 6 (Homo sapiens) (UniProt Q00534).
Assay [9] concerns the target Serine/threonine-protein kinase PAK 4 (Homo sapiens) (UniProt O96013).
The target of assay [10] is Serine/threonine-protein kinase pim-3 (Homo sapiens) (UniProt Q86V86).
Assay [11] deals with Cyclin-dependent kinase-like 1 (Homo sapiens) (UniProt Q00532).
Assay [12] deals with Serine/threonine-protein kinase 16 (Homo sapiens) (UniProt O75716).
Assay [13] concerns the target T4, Serine/threonine-protein kinase 4 (Homo sapiens) (UniProt Q13043).
T4 sequence (whole entry): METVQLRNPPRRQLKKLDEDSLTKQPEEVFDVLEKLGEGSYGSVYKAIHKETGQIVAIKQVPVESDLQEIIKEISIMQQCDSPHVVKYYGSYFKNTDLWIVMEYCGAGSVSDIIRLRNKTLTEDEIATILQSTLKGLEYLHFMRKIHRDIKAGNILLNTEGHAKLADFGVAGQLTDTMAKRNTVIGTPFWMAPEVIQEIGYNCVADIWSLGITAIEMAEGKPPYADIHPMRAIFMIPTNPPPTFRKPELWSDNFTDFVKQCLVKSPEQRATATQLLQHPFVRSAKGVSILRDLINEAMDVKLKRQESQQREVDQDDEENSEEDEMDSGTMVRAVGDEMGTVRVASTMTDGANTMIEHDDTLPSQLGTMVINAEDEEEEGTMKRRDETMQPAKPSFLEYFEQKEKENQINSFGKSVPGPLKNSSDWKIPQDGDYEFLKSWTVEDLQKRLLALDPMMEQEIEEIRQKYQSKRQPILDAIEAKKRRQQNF

Assay [14] addresses Mitogen-activated protein kinase 11 (Homo sapiens, UniProt Q15759).
Assay [15] has as its target Cyclin-dependent kinase 16 (Homo sapiens) (UniProt Q00536).
The target in assay [16] is Ribosomal protein S6 kinase alpha-3 (Homo sapiens) (UniProt P51812).
Assay [17] has as its target Mitogen-activated protein kinase 3 (Homo sapiens, UniProt P27361).
In assay [18] the target is T5, Lymphokine-activated killer T-cell-originated protein kinase (Homo sapiens) (UniProt Q96KB5).
T5 sequence (whole entry): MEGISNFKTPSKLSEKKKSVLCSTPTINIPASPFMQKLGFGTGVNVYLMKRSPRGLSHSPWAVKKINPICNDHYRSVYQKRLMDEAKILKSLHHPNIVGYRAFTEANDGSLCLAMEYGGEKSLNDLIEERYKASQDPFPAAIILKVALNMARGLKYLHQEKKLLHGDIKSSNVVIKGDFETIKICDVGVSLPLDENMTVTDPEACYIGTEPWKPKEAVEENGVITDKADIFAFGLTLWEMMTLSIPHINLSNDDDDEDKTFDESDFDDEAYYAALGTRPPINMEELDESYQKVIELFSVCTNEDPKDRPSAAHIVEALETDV

SMILES strings stand for the structures.

Mitogen-activated protein kinase 11, sequence (Q15759 whole entry): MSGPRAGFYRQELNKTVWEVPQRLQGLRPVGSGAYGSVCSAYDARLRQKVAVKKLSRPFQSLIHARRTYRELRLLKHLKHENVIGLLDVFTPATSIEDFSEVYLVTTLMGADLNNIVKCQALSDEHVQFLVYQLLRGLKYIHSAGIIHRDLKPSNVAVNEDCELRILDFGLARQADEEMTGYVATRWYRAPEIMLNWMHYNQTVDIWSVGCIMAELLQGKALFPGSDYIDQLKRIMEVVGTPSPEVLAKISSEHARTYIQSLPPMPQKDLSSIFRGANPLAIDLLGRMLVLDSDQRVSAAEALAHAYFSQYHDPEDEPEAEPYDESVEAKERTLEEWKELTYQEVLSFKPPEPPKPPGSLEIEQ
Ribosomal protein S6 kinase alpha-3 (Homo sapiens), sequence (P51812 whole entry): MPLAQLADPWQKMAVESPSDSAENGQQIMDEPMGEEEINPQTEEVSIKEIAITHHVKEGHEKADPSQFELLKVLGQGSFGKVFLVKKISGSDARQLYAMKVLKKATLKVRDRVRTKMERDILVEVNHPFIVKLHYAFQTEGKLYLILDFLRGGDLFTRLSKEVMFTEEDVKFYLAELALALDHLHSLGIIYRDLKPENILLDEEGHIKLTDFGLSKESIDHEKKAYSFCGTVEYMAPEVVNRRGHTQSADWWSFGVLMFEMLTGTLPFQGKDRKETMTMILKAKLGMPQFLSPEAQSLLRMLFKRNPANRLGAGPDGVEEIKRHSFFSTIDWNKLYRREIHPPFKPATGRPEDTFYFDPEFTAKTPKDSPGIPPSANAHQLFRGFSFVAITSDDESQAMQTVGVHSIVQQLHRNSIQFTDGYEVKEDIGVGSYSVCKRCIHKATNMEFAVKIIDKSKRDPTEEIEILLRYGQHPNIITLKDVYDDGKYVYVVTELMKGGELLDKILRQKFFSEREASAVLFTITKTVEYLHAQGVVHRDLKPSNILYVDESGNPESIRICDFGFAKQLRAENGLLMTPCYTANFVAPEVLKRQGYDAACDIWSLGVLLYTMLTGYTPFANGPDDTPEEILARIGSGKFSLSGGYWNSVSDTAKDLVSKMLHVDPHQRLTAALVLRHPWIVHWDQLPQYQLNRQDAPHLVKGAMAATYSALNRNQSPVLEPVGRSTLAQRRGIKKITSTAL
Serine/threonine-protein kinase 38 (Homo sapiens), sequence (Q15208 2-465 limits assumed): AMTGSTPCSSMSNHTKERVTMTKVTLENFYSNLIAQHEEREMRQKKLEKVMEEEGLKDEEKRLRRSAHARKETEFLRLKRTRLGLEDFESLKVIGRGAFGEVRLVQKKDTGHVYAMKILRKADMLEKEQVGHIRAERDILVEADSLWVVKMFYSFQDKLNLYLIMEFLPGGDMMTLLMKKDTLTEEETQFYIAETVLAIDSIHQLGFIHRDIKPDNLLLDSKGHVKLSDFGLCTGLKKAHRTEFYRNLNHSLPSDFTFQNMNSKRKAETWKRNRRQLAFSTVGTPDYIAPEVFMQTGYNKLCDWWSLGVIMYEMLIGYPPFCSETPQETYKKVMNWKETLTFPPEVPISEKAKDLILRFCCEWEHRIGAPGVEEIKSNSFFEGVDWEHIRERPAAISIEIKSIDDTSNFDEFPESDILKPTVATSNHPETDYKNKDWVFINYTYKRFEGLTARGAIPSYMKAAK
Calcium/calmodulin-dependent protein kinase type 1D (Homo sapiens), sequence (Q8IU85 whole entry, looked up): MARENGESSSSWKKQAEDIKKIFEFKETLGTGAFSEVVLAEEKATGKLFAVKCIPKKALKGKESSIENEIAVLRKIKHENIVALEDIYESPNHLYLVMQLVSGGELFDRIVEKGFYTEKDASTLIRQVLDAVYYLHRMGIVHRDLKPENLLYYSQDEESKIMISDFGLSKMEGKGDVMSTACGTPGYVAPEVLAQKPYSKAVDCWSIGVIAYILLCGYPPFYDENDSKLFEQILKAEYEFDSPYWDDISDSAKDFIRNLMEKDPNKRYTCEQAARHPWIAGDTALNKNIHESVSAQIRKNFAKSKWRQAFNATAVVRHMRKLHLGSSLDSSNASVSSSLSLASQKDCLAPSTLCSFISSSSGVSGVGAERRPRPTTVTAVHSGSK
Cyclin-dependent kinase 16 (Homo sapiens), sequence (Q00536 whole entry): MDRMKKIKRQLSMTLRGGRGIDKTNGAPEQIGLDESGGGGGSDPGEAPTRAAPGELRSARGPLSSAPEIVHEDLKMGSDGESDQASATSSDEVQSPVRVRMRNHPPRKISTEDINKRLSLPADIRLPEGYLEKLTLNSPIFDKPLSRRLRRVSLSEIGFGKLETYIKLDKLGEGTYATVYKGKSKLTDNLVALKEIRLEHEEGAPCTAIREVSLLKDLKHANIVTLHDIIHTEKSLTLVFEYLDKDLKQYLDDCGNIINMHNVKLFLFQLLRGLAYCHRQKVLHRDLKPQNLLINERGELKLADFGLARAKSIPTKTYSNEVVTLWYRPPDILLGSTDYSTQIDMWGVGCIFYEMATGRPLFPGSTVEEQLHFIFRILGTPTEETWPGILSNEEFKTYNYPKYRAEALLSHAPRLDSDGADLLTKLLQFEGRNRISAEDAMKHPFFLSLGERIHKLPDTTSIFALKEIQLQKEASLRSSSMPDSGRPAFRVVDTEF
Serine/threonine-protein kinase PAK 5 (Homo sapiens), sequence (Q9P286 whole entry, looked up): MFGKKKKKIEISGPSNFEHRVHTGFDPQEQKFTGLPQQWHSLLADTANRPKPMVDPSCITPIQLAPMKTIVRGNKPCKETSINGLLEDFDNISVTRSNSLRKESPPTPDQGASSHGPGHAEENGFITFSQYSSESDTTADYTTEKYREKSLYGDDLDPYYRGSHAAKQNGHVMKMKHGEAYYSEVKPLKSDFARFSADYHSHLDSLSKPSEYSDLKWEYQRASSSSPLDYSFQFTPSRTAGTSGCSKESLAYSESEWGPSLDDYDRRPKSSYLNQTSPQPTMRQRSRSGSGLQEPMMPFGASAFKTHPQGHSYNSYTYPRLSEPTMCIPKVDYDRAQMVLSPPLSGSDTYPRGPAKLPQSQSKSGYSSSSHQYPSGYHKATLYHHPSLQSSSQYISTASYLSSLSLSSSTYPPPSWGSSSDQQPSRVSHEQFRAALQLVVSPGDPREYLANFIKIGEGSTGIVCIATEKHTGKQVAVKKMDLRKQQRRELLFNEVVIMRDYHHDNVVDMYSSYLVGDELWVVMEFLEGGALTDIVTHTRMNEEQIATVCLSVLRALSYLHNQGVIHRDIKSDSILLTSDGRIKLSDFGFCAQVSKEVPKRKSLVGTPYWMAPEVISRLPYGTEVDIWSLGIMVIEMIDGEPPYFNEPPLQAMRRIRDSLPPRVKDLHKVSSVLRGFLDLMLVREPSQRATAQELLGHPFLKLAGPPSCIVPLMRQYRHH
Cyclin-dependent kinase 6 (Homo sapiens), sequence (Q00534 whole entry): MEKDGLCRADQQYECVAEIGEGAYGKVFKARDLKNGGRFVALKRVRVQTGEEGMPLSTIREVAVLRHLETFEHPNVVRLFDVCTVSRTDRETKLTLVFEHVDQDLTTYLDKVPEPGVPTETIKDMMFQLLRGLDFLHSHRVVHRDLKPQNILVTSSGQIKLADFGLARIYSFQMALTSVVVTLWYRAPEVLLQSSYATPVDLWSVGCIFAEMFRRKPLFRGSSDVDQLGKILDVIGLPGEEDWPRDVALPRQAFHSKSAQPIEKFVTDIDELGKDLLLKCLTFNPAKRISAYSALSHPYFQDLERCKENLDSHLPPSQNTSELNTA
Serine/threonine-protein kinase 26 (Homo sapiens), sequence (Q9P289 2-416 limits assumed): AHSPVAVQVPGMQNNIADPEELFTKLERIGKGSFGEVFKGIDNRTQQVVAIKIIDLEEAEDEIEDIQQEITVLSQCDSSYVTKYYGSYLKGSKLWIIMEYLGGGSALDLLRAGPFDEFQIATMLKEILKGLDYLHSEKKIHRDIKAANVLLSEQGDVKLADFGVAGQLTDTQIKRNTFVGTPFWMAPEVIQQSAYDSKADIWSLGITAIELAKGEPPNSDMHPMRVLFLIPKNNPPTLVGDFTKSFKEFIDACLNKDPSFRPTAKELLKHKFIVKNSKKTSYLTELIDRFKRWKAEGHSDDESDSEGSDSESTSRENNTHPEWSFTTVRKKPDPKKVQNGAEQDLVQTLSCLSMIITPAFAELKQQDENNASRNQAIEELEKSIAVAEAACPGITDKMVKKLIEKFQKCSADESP
Cyclin-dependent kinase-like 1 (Homo sapiens), sequence (Q00532 whole entry): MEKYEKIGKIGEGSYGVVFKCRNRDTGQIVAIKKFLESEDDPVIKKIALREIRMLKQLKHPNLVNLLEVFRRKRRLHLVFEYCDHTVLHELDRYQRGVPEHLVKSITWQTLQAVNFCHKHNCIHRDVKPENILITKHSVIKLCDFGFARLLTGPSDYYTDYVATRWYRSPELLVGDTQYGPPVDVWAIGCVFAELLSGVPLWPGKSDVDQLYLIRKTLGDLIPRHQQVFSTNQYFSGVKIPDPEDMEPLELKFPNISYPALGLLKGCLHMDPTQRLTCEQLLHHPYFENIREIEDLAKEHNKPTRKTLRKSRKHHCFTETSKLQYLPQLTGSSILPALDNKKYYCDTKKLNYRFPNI
Serine/threonine-protein kinase 16 (Homo sapiens), sequence (O75716 whole entry): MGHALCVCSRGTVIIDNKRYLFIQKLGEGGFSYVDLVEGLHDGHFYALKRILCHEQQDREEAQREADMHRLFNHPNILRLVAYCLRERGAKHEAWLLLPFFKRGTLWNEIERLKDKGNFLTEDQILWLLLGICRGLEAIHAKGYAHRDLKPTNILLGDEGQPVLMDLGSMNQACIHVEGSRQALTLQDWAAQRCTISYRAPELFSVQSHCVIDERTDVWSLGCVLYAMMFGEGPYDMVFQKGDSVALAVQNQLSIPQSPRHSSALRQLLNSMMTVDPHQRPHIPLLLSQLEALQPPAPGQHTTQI
Mitogen-activated protein kinase 3, sequence (P27361 whole entry): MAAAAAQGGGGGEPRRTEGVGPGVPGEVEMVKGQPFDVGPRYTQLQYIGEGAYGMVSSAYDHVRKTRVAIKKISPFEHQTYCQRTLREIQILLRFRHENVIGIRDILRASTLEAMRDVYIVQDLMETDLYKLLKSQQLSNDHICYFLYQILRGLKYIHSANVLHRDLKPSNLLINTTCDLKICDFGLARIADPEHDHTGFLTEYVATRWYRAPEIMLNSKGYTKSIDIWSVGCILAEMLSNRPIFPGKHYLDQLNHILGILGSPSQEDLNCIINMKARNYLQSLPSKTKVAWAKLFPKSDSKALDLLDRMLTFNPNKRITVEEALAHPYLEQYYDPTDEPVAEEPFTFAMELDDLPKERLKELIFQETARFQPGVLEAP

As usually defined, the ΔTm is the change in melting temperature against a reference sample. Consider `Cn1cc(C2=C(c3cn(CCCN)c4ccccc34)C(=O)NC2=O)c2ccccc21`, for which the ΔTm in assay [1] came to 0.2 °C; in [2], 2.1 °C; in assay [3] it was 0.3 °C; in assay [4] it was 0.8 °C; in assay [5], 4.6 °C; in assay [6] it was 0.9 °C. Also, the ΔTm in assay [7] is 1.4 °C; in assay [8] it was 1.3 °C; in assay [9] it was 4.3 °C; in assay [10] it was 6.7 °C; in assay [11], 2.7 °C; in assay [12], 4.3 °C. Besides, the ΔTm in [13] is 2.2 °C; in assay [14], 0.5 °C; in [15] it was 4.7 °C; in assay [16], 1.9 °C; in assay [17], -0.3 °C; in assay [18] it was -0.8 °C.
As for `O=c1c(-c2ccc(F)cc2)c(-c2ccncc2)[nH]n1-c1ccc(Cl)cc1`, the ΔTm in assay [1] is 0.5 °C; in assay [2] it was -0.5 °C; in assay [3] it was 0.1 °C; in assay [4], 0.3 °C; in assay [5] it was 0.2 °C; in assay [6], 1.4 °C. The ΔTm is -0.1 °C in [7]; 0.6 °C in assay [8]; 0.7 °C in assay [9]; 0.5 °C in assay [10]; 0.4 °C in assay [11]; 0.1 °C in assay [12]. Moreover, the ΔTm in assay [13] is 1.8 °C; in assay [14] it was 7.1 °C; in assay [15], 0.3 °C; in assay [16], 0 °C; in assay [17] it was 1.2 °C; in assay [18], 0.8 °C.
On to `N#C/C(=C\c1ccc(O)c(O)c1)C(=O)NCc1ccccc1`, for which the ΔTm in assay [1] turned out to be 0.1 °C; in assay [2] it was 0.1 °C; in [3], 0.2 °C; in [4] it was 0.4 °C; in [5], 4.4 °C; in assay [6], 0.7 °C. For the same molecule, the ΔTm is 0.3 °C in assay [7]; 0.4 °C in [8]; -0.1 °C in assay [9]; 3.1 °C in [10]; -0.3 °C in assay [11]; 0.4 °C in assay [12]. The ΔTm in assay [13] was 0.4 °C; in assay [14] it was 0.4 °C; in [15] it was -0.6 °C; in assay [16] it was 1.2 °C; in assay [17] it was 0.8 °C; in assay [18], 0.7 °C.
On to `COc1cc2ncnc(Nc3ccc(F)c(Cl)c3)c2cc1OCCCN1CCOCC1`, for which the ΔTm was determined as 0.5 °C in assay [1]; 0 °C in [2]; 0.4 °C in [3]; 0.1 °C in assay [4]; 0.6 °C in assay [5]; 1.1 °C in [6]. In addition, the ΔTm in assay [7] was 0.2 °C; in [8] it was 0.6 °C; in [9], 1.2 °C; in [10] it was -0.2 °C; in assay [11], 0.2 °C; in [12] it was 3.1 °C. Moreover, the ΔTm was 1.6 °C in assay [13]; 0.8 °C in assay [14]; -0.3 °C in assay [15]; 5.3 °C in assay [16]; -0.2 °C in assay [17]; 0.6 °C in assay [18].
For `COC(=O)[C@]1(O)C[C@@H]2O[C@@]1(C)n1c3ccccc3c3c4c(c5c6ccccc6n2c5c31)C(=O)NC4` (single isomer, unassigned), the ΔTm in assay [1] is 3.9 °C; in [2] it was 3 °C; in [3], 4 °C; in [5], 17.5 °C; in assay [6], 1.9 °C; in assay [7], 5.5 °C. Further, the ΔTm in assay [8] is 3.1 °C; in [9] it was 3.9 °C; in [10], 5.8 °C; in assay [11] it was 6.9 °C; in assay [12], 2.3 °C; in assay [13], 9.5 °C. The ΔTm in assay [14] is 0.7 °C; in assay [15], 0.8 °C; in assay [16], 5.1 °C; in assay [17], 2 °C; in [18], 0.4 °C.
As to `CCN(CC)CCNC(=O)c1c(C)[nH]c(/C=C2\C(=O)Nc3ccc(F)cc32)c1C`, the ΔTm was 5.6 °C in assay [1]; 4.7 °C in assay [2]; 3.9 °C in assay [4]; 8.3 °C in assay [5]; -0.4 °C in assay [6]; 1.7 °C in assay [7]. Besides, the ΔTm in [8] turned out to be 2.1 °C; in [9], 3.3 °C; in [10] it was 7.1 °C; in assay [11], 0.5 °C; in assay [12], 3.3 °C; in assay [13], 0.5 °C. Further, the ΔTm in assay [14] was found to be 0.1 °C; in assay [16], 8.6 °C; in assay [17], 0.9 °C; in [18], 0.4 °C.
Take `Nc1nccc(-c2c(-c3ccc(F)cc3)ncn2C2CCNCC2)n1`: the ΔTm in assay [1] is 0.3 °C; in [2], -1.3 °C; in assay [3], -0.2 °C; in assay [4], 0.2 °C; in [5] it was 0.4 °C; in assay [6] it was 1.1 °C. The ΔTm in [7] was 0 °C; in assay [8], 0.3 °C; in assay [9], 1 °C; in assay [10] it was 0 °C; in assay [11], 0.4 °C; in assay [12], -0.1 °C. Further, the ΔTm is 2.6 °C in assay [13]; 0.5 °C in [15]; -0.1 °C in [16]; 0.5 °C in assay [17]; 0.5 °C in [18].
